Measurements: patent publication US6809064B2, “Synergistic herbicidal compositions comprising herbicides from the benzoylcyclohexanedione group for use in rice crops” (Aventis CropScience GmbH, priority 2001, dated 2004)
Where two headings read alike, the source gives them in different places.

Experiments:
SCPJU = test: Post-emergence herbicidal action, submerged application; type: in vivo, Scirpus juncoides; settings: for pest or weed control at 15 g/ha: dosage 15 g ai/ha
Procedure: (§1) The herbicidal efficacy of the active ingredients or active ingredient mixtures was scored visually by comparing the treated variants with untreated control variants. The damage and development of all aerial plant parts was recorded. Scoring was done on a percentage scale (100% action=all plants dead; 50% action=50% of the plants and green plant parts dead; 0% action=no discernible action=like untreated control plot).
(§2) Seeds or root segments of monocotyledonous and dicotyledonous weeds are placed in sandy loam in pots, covered with soil and grown in the greenhouse under good growth conditions (temperature, atmospheric humidity, water supply). Approximately three weeks after planting, the experimental plants are treated with the compositions according to the invention. In the case of spray application, the compositions according to the invention, which are formulated as wettable powders or emulsion concentrates, are sprayed onto the green plant parts in various dosages with an application rate of 600 to 800 l of water per ha (converted). Immediately to a few days after the application, the test containers are flooded with water up to a depth of 30 mm above the soil surface. In the case of submerged application, in contrast, the soil in the closed test container is already covered with paddy water up to a depth of 30 mm at the time of application. Here, the formulated active ingredients are added directly to the paddy water. After the experimental plants have remained in the greenhouse under optimal growth conditions for a further 3 to 4 weeks, the effect of the preparations is scored visually in comparison with untreated controls. The compositions according to the invention also have an outstanding herbicidal action against a broad spectrum of economically important grass weeds and broad-leaved weeds when applied post-emergence. Frequently, effects of the combinations according to the invention are observed which exceed the formal total of the effects when the herbicides are applied individually. When using suitable low dosages, the values observed in the experiments show an effect of the combinations which exceed the expected values calculated using Colby's formula.
(§3) When applying the combinations according to the invention, herbicidal effects are frequently observed on a harmful plant species which exceed the formal total of the effects of the herbicides present when these are applied by themselves. Alternatively, it is observed in some cases that a lower application rate is required for the herbicide combination in order to achieve the same effect on a harmful plant species in comparison with the individual products.
(§4) A, B=action of component A or B in percent at a dosage of a and b grams of ai/ha, respectively, and
(§5) E=expected value in % at a dosage of a+b grams of ai/ha.
(§6) Examples B.I to B.XVII have been conducted according to method B.2 (post-emergence herbicidal action) as mentioned above, wherein spray application has been applied in case of examples B.I to B.V. Submerged application has been applied in case of examples B.VI bis B.XVII.

SAGPY = test: as above; type: in vivo, Sagittaria pygmaea
Procedure: as §1, §2, §3, §4, §5, §6

ECHCG = test: Post-emergence herbicidal action, spray application; type: in vivo, Echinochloa crus galli
Procedure: as §1, §2, §3
A, B=action of component A or B in percent at a dosage of a and b grams of ai/ha, respectively, and […]

SEBEX = test: as above; type: in vivo, Sesbania exaltata
Procedure: as §1
as §2, with “Frequently, effects of the combinations according to the invention are observed which exceed the formal total of the effects when the herbicides are applied individually.” left out, “formula. […]” for “formula.”

CYPSE = test: Post-emergence herbicidal action, submerged application; type: in vivo, Cyperus serotinus; settings: Example B.X, dosage 750 g ai/ha
Procedure: as §1
(§7) Seeds or root segments of monocotyledonous and dicotyledonous weeds are placed in sandy loam in pots, covered with soil and grown in the greenhouse under good growth conditions (temperature, atmospheric humidity, water supply). Approximately three weeks after planting, the experimental plants are treated with the compositions according to the invention. […] After the experimental plants have remained in the greenhouse under optimal growth conditions for a further 3 to 4 weeks, the effect of the preparations is scored visually in comparison with untreated controls. […] When using suitable low dosages, the values observed in the experiments show an effect of the combinations which exceed the expected values calculated using Colby's formula. […]

CHEAL = test: Post-emergence herbicidal action, spray application; type: in vivo, Chenopodium album; settings: Example B.I, dosage 10 g ai/ha
Procedure: as §1, §7

ECHOR = test: Post-emergence herbicidal action, submerged application; type: in vivo; settings: Example B.XIV, dosage 18.75 g ai/ha
Procedure: as §1, §7

CYPES = test: Post-emergence herbicidal action, spray application; type: in vivo; settings: Example B.IV, dosage 20 g ai/ha
Procedure: as §1, §7

[1] = Example B.II, dosage 100 g ai/ha
[2] = Example B.VI, submerged application, dosage 75 g ai/ha
[3] = Schoenoplectiella juncoides, read-out: SCPJU found
[4] = Sagittaria pygmaea, read-out: SAGPY found
[5] = Example B.III, dosage 100 g ai/ha
[6] = Example B.V, dosage 500 g ai/ha

In the case of `Cc1ccccc1CO[C@@H]1C[C@@]2(C(C)C)CC[C@]1(C)O2` (racemic) [Compound B7.1, cinmethylin], the pest or weed control at 15 g/ha (SCPJU; Schoenoplectiella juncoides, Example B.IX, submerged application, read-out: SCPJU found) is reported as 0% and the pest or weed control at 30 g/ha (SAGPY; Sagittaria pygmaea, Example B.IX, submerged application, dosage 30 g ai/ha, read-out: SAGPY found) is reported as 0%.

`O=C(O)COc1ccc(Cl)cc1Cl` [Compound B1.1, 2,4-D] was tested, and the ECHCG found (ECHCG; [1]) was 50% and the SEBEX found (SEBEX; [1]) was 45%.

`CS(=O)(=O)c1ccc(C(=O)C2=C(Sc3ccccc3)C3CCC(C3)C2=O)c(Cl)c1` (stereo not drawn) [Compound B2.1, benzobicyclon] was tested, and the SCPJU found (SCPJU; [2]) was 30% and the SAGPY found (SAGPY; [2]) was 0%.

For `Cc1ccc(C(=O)COc2c(C(=O)c3ccc(Cl)c(C)c3Cl)c(C)nn2C)cc1` [Compound B3.1, benzofenap], the pest or weed control at 300 g/ha (SCPJU; Schoenoplectiella juncoides, Example B.VII, submerged application, dosage 300 g ai/ha, read-out: SCPJU found) was 0% and the pest or weed control at 75 g/ha (SAGPY; Sagittaria pygmaea, Example B.VII, submerged application, dosage 75 g ai/ha, read-out: SAGPY found) was 0%.

In the case of `CC(C)Oc1cc(-n2nc(C(C)(C)C)oc2=O)c(Cl)cc1Cl` [Compound B4.2, oxadiazon], the pest or weed control at 22 g/ha (SCPJU; Schoenoplectiella juncoides, Example B.XV, submerged application, dosage 22 g ai/ha, read-out: SCPJU found) is reported as 10% and the pest or weed control at 175 g/ha (SAGPY; Sagittaria pygmaea, Example B.XV, submerged application, dosage 175 g ai/ha, read-out: SAGPY found) is reported as 0%.

Compound `CCN(CC)C(=O)n1cnc(S(=O)(=O)c2c(C)cc(C)cc2C)n1` [Compound B5.1, cafenstrole] has a pest or weed control at 75 g/ha (SCPJU; [3]) of 0% and a pest or weed control at 150 g/ha (SAGPY; [4]) of 0%.

In the case of `Cc1ccc(NC(=O)NC(C)(C)c2ccccc2)cc1` [Compound B5.2, daimuron], the pest or weed control at 375 g/ha (SAGPY; Sagittaria pygmaea, Example B.X, submerged application, dosage 375 g ai/ha, read-out: SAGPY found) is reported as 0% and the CYPSE found (CYPSE) is reported as 0%.

Compound `CSC(=O)c1c(C(F)F)nc(C(F)(F)F)c(C(=O)SC)c1CC(C)C` [Compound B5.3, dithiopyr] has a pest or weed control at 15 g/ha (SCPJU; Schoenoplectiella juncoides, Example B.XI, submerged application, read-out: SCPJU found) of 0% and a pest or weed control at 15 g/ha (SAGPY; Sagittaria pygmaea, Example B.XI, submerged application, dosage 15 g ai/ha, read-out: SAGPY found) of 0%.

`CCN(C(=O)n1nnn(-c2ccccc2Cl)c1=O)C1CCCCC1` [Compound B5.4, fentrazamide] was tested, and the pest or weed control at 75 g/ha (SCPJU; Schoenoplectiella juncoides, Example B.XIII, submerged application, dosage 75 g ai/ha, read-out: SCPJU found) was 0% and the pest or weed control at 37.5 g/ha (SAGPY; Sagittaria pygmaea, Example B.XIII, submerged application, dosage 37.5 g ai/ha, read-out: SAGPY found) was 0%.

`CCOC(=O)c1cnn(C)c1S(=O)(=O)NC(=O)Nc1nc(OC)cc(OC)n1` [Compound B6.2, pyrazosulfuron-ethyl] was tested, and the CHEAL found (CHEAL) was 10%.

`CO/N=C(/C)c1cccc(Oc2nc(OC)cc(OC)n2)c1C(=O)OC` [Compound B6.3, pyriminobac-methyl] was tested, and the pest or weed control at 7.5 g/ha (SCPJU; [3]) was 0% and the pest or weed control at 7.5 g/ha (SAGPY; [4]) was 0%.

`CCNc1nc(NC(C)C(C)C)nc(SC)n1` (stereo not drawn) [Compound B8.1, dimethametryn] was tested, and the ECHCG found (ECHCG; [5]) was 25% and the SEBEX found (SEBEX; [5]) was 50%.

`CCOCOc1ccc(C(=O)Nc2cccc(Cl)c2Cl)cc1` [Compound B9.1, etobenzamide] was tested, and the SCPJU found (SCPJU; Example B.XII, submerged application, dosage 375 g ai/ha) was 0% and the SAGPY found (SAGPY; Example B.XII, submerged application, dosage 187 g ai/ha) was 0%.

`CCC1(CC2(c3cccc(Cl)c3)CO2)C(=O)c2ccccc2C1=O` (stereo not drawn) [Compound B10.1, indanofan] showed a pest or weed control at 37.5 g/ha (SCPJU; Schoenoplectiella juncoides, Example B.XIV, submerged application, dosage 37.5 g ai/ha, read-out: SCPJU found) of 20% and an ECHOR found (ECHOR) of 50%.

With `COc1cc(OC)nc(Sc2cccc3c2C(=O)OC3C)n1` (stereo not drawn) [Compound B12.1, pyriftalide] the pest or weed control at 100 g/ha (SCPJU; Schoenoplectiella juncoides, Example B.XVI, submerged application, dosage 100 g ai/ha, read-out: SCPJU found) was 0% and the pest or weed control at 50 g/ha (SAGPY; Sagittaria pygmaea, Example B.XVI, submerged application, dosage 50 g ai/ha, read-out: SAGPY found) was 0%.

In the case of `CCCC(=NOCC(C)Oc1ccc(Cl)cc1)C1=C(O)CC(C2CCCSC2)CC1=O` (stereo not drawn) [Compound B13.1, profoxydim], the ECHCG found (ECHCG; Example B.IV, dosage 20 g ai/ha) is reported as 30% and the CYPES found (CYPES) is reported as 0%.

Work on `NC1=C(Cl)C(=O)c2ccccc2C1=O` [Compound B14.1, quinoclamine] yielded an ECHCG found (ECHCG; [6]) of 0% and an SEBEX found (SEBEX; [6]) of 0%.
